Activity calls are given as the source filed them. The rule behind the calls is not given here.
Legend:
Adipocyte = test: Induction of lipolysis in human Adipocyte assessed as glycerol concentration at 10 uM relative to control; type: functional
C3H 10T1/2 [1] = test: Induction of lipolysis in mouse C3H10T1/2 assessed as glycerol concentration at 10 uM relative to control; type: functional
C3H 10T1/2 [2] = test: Induction of lipolysis in mouse C3H10T1/2 assessed as glycerol concentration; type: functional, cell-based
3T3-L1 [3] = test: Effect on adipogenesis in mouse 3T3L1 cells assessed as adiponectin mRNA expression by RT-PCR method; type: functional, cell-based
3T3-L1 [4] = test: Effect on adipogenesis in mouse 3T3L1 cells assessed as G3PD mRNA expression by RT-PCR method; type: functional, cell-based
[5] = molecular target: cGMP-inhibited 3',5'-cyclic phosphodiesterase 3B (Homo sapiens, UniProt Q13370); test: Inhibition of human recombinant PDE3B
3T3-L1 [6] = test: Effect on adipogenesis in mouse 3T3L1 cells assessed as FABP4 mRNA expression by RT-PCR method; type: functional, cell-based
3T3-L1 [7] = test: Effect on adipogenesis in mouse 3T3L1 cells assessed as PPARgamma mRNA expression by RT-PCR method; type: functional, cell-based
3T3-L1 [8] = test: Effect on adipogenesis in mouse 3T3L1 cells assessed as cellular lipid content by Oil red O staining; type: functional, cell-based
[9] = molecular target: cGMP-inhibited 3',5'-cyclic phosphodiesterase 3A (Homo sapiens, UniProt Q14432); test: Inhibition of human recombinant PDE3A
Sequence of cGMP-inhibited 3',5'-cyclic phosphodiesterase 3A (Q14432 whole entry): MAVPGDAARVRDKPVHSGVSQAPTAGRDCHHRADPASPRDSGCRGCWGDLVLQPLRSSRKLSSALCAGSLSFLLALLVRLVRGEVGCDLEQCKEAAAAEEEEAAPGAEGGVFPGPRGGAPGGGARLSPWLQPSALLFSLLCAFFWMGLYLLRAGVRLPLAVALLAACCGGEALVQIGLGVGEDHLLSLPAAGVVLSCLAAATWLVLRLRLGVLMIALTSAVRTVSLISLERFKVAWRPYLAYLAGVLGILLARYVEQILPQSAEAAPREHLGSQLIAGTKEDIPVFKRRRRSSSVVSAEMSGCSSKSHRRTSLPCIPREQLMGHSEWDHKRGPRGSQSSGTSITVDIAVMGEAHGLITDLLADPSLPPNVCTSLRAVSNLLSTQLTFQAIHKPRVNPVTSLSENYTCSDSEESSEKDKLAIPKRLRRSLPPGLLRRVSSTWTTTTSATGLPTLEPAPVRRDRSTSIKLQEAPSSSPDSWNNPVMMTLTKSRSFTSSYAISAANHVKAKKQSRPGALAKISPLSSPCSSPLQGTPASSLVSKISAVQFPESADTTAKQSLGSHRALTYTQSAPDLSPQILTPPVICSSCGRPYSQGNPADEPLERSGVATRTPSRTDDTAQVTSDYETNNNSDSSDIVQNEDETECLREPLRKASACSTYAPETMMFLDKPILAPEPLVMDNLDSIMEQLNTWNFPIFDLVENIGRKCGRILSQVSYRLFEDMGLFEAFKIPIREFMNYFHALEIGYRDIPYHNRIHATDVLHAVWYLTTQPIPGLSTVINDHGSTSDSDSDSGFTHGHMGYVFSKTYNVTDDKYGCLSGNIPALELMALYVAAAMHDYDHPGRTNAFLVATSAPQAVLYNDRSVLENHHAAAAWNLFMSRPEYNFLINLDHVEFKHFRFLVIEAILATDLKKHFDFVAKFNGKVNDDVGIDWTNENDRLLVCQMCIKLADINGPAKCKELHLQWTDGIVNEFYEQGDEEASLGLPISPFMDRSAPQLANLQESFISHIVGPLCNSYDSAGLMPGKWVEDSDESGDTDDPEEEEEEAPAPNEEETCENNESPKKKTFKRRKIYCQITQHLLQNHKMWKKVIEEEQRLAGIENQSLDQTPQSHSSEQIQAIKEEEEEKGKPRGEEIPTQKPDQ

Sequence of cGMP-inhibited 3',5'-cyclic phosphodiesterase 3B (Q13370 whole entry): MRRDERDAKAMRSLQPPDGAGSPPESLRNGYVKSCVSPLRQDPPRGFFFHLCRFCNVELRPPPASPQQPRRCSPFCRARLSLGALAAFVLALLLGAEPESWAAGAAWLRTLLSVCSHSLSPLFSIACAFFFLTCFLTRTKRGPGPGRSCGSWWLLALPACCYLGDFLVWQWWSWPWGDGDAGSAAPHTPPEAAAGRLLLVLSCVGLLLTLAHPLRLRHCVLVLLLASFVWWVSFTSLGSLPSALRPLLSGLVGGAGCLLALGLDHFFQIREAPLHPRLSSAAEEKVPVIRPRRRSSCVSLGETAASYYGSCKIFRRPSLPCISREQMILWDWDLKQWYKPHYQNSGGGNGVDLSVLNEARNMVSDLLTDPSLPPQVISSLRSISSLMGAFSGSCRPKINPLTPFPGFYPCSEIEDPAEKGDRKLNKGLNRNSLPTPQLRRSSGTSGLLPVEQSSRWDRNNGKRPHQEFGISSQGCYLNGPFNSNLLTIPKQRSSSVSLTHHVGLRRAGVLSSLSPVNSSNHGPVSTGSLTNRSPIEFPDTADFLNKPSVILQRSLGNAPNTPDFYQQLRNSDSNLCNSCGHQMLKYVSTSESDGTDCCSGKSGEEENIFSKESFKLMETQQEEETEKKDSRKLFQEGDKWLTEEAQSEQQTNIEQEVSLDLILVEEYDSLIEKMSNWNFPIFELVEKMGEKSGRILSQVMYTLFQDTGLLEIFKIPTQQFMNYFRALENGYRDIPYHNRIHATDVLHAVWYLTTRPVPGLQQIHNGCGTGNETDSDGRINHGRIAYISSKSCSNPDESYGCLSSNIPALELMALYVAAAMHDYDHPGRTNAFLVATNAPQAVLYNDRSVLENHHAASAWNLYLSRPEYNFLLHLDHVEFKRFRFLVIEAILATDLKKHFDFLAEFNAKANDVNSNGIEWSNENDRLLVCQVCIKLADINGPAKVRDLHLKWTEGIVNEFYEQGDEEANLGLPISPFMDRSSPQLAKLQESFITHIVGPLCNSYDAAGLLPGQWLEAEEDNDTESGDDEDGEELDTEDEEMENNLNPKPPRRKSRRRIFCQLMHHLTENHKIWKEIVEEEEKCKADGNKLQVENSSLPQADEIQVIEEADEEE

Structure (SMILES)	Activity (Adipocyte) [%]	Activity (C3H 10T1/2 [1]) [%]	EC50 (C3H 10T1/2 [2]) [µM]	Activity (3T3-L1 [3])	Activity (3T3-L1 [4])	IC50 [5] [µM]	Activity (3T3-L1 [6])	Activity (3T3-L1 [7])	Activity (3T3-L1 [8])	IC50 [9] [µM]
CN(C(=O)CCCOc1ccc2[nH]c(=O)ccc2c1)C1CCCCC1 [CILOSTAMIDE]	192.4	247.36	0.0091	Active	Active	0.0691	Active	Active	Active	
CC1=NN(S(=O)(=O)c2ccc(C)cc2)C(O)(C(F)(F)F)C1 (stereo not given)	116.67	171.3	0.0068							
Cc1ccc(S(=O)(=O)N/N=C2\CC(C)(C)Oc3ccc([N+](=O)[O-])cc32)cc1	116.67	168.4	0.0052							
CCCC(NS(=O)(=O)c1ccc2c(c1)CCCC(=O)N2)c1cccs1 (stereo not given)	130.2	131.9								
CC(C)NCC(O)c1ccc(O)c(O)c1 (stereo not given) [ISOPROTERENOL]	214.39	291.3	0.019							
C/C(=N\NS(=O)(=O)c1ccc(C)cc1)c1ccc2c(c1)C(C)(C)C(=O)N2	171.5	191.7	0.0089	Active	Active	0.0884	Active	Active	Active	0.0148
